# Reference: US8338616B2, “Thiazoliums and their use for treating protein aging associated diseases” (Beijing Molecule Science And Technology Co., Ltd., priority 2008, dated 2012)
# “And” between values parts separate entries of the source, which are not always exact repeats. Equal values may be shown once. Read-outs that look alike come from different tables or passages of the source. Marks after values point to notes of the source that are not given here.
# Tests used:
# [1] = tested on: long-term diabetic rats
# [2] = tested on: diabetic rats; settings: for CO / Cl / Diastolic pressure / Heart rate / SAC / Systolic pressure / TPR / TPR index / Organ parameters: Heart / Organ parameters: Heart ventricle / Organ parameters: Left kidney / Organ parameters: Left ventricle / Organ parameters: Right kidney: diabetic rats; for CO / Cl / Diastolic pressure / Heart rate / SAC / Systolic pressure / TPR / TPR index: 4 weeks; for Organ parameters: Heart / Organ parameters: Heart ventricle / Organ parameters: Left kidney / Organ parameters: Left ventricle / Organ parameters: Right kidney: dose not given
# Protocol: Rats were anesthetized with pentobarbital sodium injection (0.8%, 50 mg/kg), subjected to tracheal cannula, heparin anticoagulation, right common carotid artery cannula, communicated with Biopac physiological recorder via is pressure transducers to record blood pressure; subjected to thoracotomy at middle of sternum, separation of ascending aorta which was covered with pulse Doppler probe, and the pulse Doppler rheometer was linked to the Biopac physiological recorder for real-time recording and calculating hemodynamic parameters by the software of Biopac (Acknowledge, Version 3): systolic blood pressure (SBP), diastolic blood pressure (DBP), heart rate (HR), cardiac output
# (CO), cardiac index (CI), total peripheral resistance (TPR), total peripheral resistance index (TPR Index), stroke volume (SV) and system arterial compliance (SAC), etc. After 10 min of postoperative stabilization, these parameters were recorded continuously, and mean values for 30 s were used as the measured values of these parameters.
# Formula for calculating some of hemodynamic parameters: TPR=mean arterial pressure (MAP)/CO SAC=SV/(SBP−DBP)
# [3] = tested on: left ventricular cardiac muscle collagen of diabetic rats; settings: printed for the group of A 18 mg/kg (three values), diabetic model 42.8±4.3, sodium
# Protocol: After the end of vascular compliance experiment, the heart of each of rats was taken, trimmed to remove heart auricle and right ventricle and remain only left ventricle, the trimmed tissue block was planced in a mortar, added with a small amount of liquid nitrogen and ground rapidly, added with a small amount of liquid nitrogen again when the tissue became soft and ground continuously to form a fine powder, and stored at −70° C. for standby use. About 100 mg of cardiac muscle was weighed, added with 1 ml 200 μg/ml pepsin (solvent: 0.5 mol/L acetic acid), shaken at 37 ° C. for 2 h and 24 h, respectively, centrifuged at 40000 g for 60 min, the supernatants of pepsin digestion solutions for 2 h and 24 h were separately taken, hydrolyzed and measured to determine hydroxyproline contents (the methods for hydrolysis and measurement are the same as aforementioned). The dissolubility of cardiac muscle collagen is calculated by the following formula: […]
# [4] = tested on: IgG cross-linked on red blood cell surface; settings: RBC of diabetic rats
# Protocol: In vitro administration: 0.1 mol/L isoosmia PBS (pH7.4) was used as negative control, and it was used as solvent to form drug solutions of the compounds to be tested with different concentrations. Per 900 μl drug solution or solvent control was added with 100 μl RBC, slightly shaken at 37° C. for 16-18 h; centrifuged at 1000 g and 4° C. for 3 min, supernatant was discarded, 0.1 mol/L is PBS (pH7.4) was used to wash plate for 4 times to remove residual compound;
# centrifuged at 1000 g and 4° C. for 3 min, a lower layer of RBC was obtained, diluted by 1:100 and used for ELISA assay.
# Immunoadsorption assay protocol for IgG content cross-linked on RBC surface: Multiscreen-HA 0.45 μm 96 well microtiter plate (Millipore) was blocked with Superblock (300 μl/well) at 37° C. for 1 h; then dried at a reduced pressure of 5 mmHg, the plate was washed with PBST for 3 time, with 0.1 MPBS (pH7.4) for 3 times, and the plate was shaken for 1 min per time; the RBC to be tested was added (50 μl/well), and PBS background control wells were set (OD0); dried by suction at a reduced pressure; washed with 0.1mol/L PBS (pH7.4) 150 μl for 4 time, the plate was shaken for 1 min per time. After dried by suction at a reduced pressure, 1:500 diluted goat anti-mouse IgG-HRP (50 μl/well) was added, stood at room temperature for 2 h, dried by suction; washed with 0.1 mol/L PBS (pH7.4) 150μl/well for 3 times, the plate was shaken for 1 min per time; dried by suction; o-phenylene diamine (OPD) substrate coloration solution (100 μl/well) was added, stood at room temperature for 30 min under protection from light, the reaction was terminated with 2 mol/L H2SO4 (100 μl/well); the reaction liquid was quickly drawn off (150 μl/well) and transferred to a normal 96 well enzyme labeled plate, and OD values were measured at 490 nm.
# Corrected OD=average OD of RBC sample to be tested−average OD of PBS background wells without RBC, the breaking rate of the compounds is expressed as the percentages of OD490 nm decrease: (OD490 nm of PBS wells−OD490 nm of the compound to be tested)/OD490 nm of PBS wells×100%.
smiles,measurement,setting,value
"Cc1csc[n+]1CC(=O)O.[Na+] [A, 3-carboxymethyl-4-methyl-thiazolium bromide sodium]","AGEs fluorescence content in aorta, left ventricular cardiac muscle and kidney",[1],significantly decreasing
same,CO,[2]; 9 mg/kg i.g.,84.9 ± 13.6 mL/min
same,Cl,[2]; 9 mg/kg i.g.,0.194 ± 0.031 ml/min per cm^2
same,Diastolic pressure,[2]; 9 mg/kg i.g.,68.8 ± 14.0 mmHg
same,Heart rate,[2]; 9 mg/kg i.g.,265.2 ± 25.8^ beats/min
same,SAC,[2]; 9 mg/kg i.g.,9.05 ± 1.44** 10^−3 ml/mmHg
same,Systolic pressure,[2]; 9 mg/kg i.g.,105.3 ± 12.0 mmHg
same,TPR,[2]; 9 mg/kg i.g.,78.6 ± 19.7** 10^3 · dyne · sec/cm^5
same,TPR index,[2]; 9 mg/kg i.g.,181.6 ± 51.3 dyne · sec/cm^3
same,CO,[2]; 18 mg/kg i.g.,79.2 ± 10.6 mL/min
same,Cl,[2]; 18 mg/kg i.g.,0.179 ± 0.026 ml/min per cm^2
same,Diastolic pressure,[2]; 18 mg/kg i.g.,72.8 ± 17.2 mmHg
same,Heart rate,[2]; 18 mg/kg i.g.,282.2 ± 31.9^ beats/min
same,SAC,[2]; 18 mg/kg i.g.,8.02 ± 1.27** 10^−3 ml/mmHg
same,Systolic pressure,[2]; 18 mg/kg i.g.,108.7 ± 14.7 mmHg
same,TPR,[2]; 18 mg/kg i.g.,87.4 ± 22.3* 10^3 · dyne · sec/cm^5
same,TPR index,[2]; 18 mg/kg i.g.,198.2 ± 56.2 dyne · sec/cm^3
same,CO,[2]; 36 mg/kg i.g.,77.7 ± 10.0 mL/min
same,Cl,[2]; 36 mg/kg i.g.,0.179 ± 0.024 ml/min per cm^2
same,Diastolic pressure,[2]; 36 mg/kg i.g.,60.7 ± 16.1 mmHg
same,Heart rate,[2]; 36 mg/kg i.g.,261.0 ± 32.3^ beats/min
same,SAC,[2]; 36 mg/kg i.g.,7.92 ± 1.11* 10^−3 ml/mmHg
same,Systolic pressure,[2]; 36 mg/kg i.g.,99.2 ± 13.2 mmHg
same,TPR,[2]; 36 mg/kg i.g.,77.0 ± 19.6** 10^3 · dyne · sec/cm^5
same,TPR index,[2]; 36 mg/kg i.g.,176.4 ± 44.6 dyne · sec/cm^3
same,Organ parameters: Heart,[2]; first of three A lines,3.42 g/g × 10^-3
same,Organ parameters: Heart ventricle,[2]; first of three A lines,2.99 g/g × 10^-3
same,Organ parameters: Left kidney,[2]; first of three A lines,5.20 g/g × 10^-3
same,Organ parameters: Left ventricle,[2]; first of three A lines,2.29 g/g × 10^-3
same,Organ parameters: Right kidney,[2]; first of three A lines,5.33 g/g × 10^-3
same,Organ parameters: Heart,[2]; second of three A lines,3.44 g/g × 10^-3
same,Organ parameters: Heart ventricle,[2]; second of three A lines,3.01 g/g × 10^-3
same,Organ parameters: Left kidney,[2]; second of three A lines,5.16 g/g × 10^-3
same,Organ parameters: Left ventricle,[2]; second of three A lines,2.34 g/g × 10^-3
same,Organ parameters: Right kidney,[2]; second of three A lines,5.22 g/g × 10^-3
same,Organ parameters: Heart,[2]; third of three A lines,3.44 g/g × 10^-3
same,Organ parameters: Heart ventricle,[2]; third of three A lines,3.03 g/g × 10^-3
same,Organ parameters: Left kidney,[2]; third of three A lines,5.07 g/g × 10^-3
same,Organ parameters: Left ventricle,[2]; third of three A lines,2.32 g/g × 10^-3
same,Organ parameters: Right kidney,[2]; third of three A lines,5.19 g/g × 10^-3
same,effect on angiosclerosis,"[2]; long-term diabetic rats, 4 weeks of administration",improving angiosclerosis
same,cardiac muscle collagen dissolubility,[3],54.7±11.0% and 53.7±11.9% and 57.7±7.3%
same,"Breaking rate (OD decrease, %)",[4]; 1 μM,25.6 ± 2.1%
same,"Breaking rate (OD decrease, %)",[4]; 10 μM,26.9 ± 3.0%
same,"Breaking rate (OD decrease, %)",[4]; 30 μM,21.6 ± 5.0%
same,"Breaking rate (OD decrease, %)",[4]; 100 μM,26.0 ± 2.7%
